The record followed here is patent US8778966B2, “Quinolinone derivatives as PARP and tank inhibitors” (Janssen Pharmaceutica, NV, priority 2007, dated 2014).

This assay deals with T1, TANK-2 enzyme (Homo sapiens, UniProt Q9H2K2).
T1 construct: made in house
T1 sequence (Q9H2K2 1-1166): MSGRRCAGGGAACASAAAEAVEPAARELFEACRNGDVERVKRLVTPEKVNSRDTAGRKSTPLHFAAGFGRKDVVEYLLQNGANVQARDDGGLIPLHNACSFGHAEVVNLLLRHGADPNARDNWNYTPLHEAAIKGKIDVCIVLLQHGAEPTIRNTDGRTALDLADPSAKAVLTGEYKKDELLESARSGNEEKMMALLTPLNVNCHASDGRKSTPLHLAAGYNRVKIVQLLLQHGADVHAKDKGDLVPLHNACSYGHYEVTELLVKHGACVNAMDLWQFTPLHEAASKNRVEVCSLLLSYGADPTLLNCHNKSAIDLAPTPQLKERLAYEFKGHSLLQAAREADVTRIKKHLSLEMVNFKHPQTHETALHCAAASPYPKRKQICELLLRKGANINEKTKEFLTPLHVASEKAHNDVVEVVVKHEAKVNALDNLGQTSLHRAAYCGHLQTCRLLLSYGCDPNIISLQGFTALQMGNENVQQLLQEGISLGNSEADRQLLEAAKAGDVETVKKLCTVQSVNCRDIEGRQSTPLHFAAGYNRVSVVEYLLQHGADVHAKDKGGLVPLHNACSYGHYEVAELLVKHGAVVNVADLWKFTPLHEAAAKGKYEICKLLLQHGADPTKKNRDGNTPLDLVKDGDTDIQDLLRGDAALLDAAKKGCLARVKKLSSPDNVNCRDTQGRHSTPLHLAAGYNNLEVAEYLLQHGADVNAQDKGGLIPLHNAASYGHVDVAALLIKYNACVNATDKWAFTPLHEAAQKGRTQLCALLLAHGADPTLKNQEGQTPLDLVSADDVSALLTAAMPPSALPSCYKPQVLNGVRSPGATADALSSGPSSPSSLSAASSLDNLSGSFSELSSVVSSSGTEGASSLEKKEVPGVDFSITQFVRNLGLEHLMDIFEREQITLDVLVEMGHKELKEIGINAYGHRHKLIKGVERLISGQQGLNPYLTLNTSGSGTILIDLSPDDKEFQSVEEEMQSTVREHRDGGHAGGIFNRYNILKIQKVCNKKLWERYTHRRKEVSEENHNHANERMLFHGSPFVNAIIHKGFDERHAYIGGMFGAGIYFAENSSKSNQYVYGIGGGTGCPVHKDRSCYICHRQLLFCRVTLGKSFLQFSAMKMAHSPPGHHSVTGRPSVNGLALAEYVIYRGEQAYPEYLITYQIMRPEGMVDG
Description: In vitro Scintillation Proximity Assay (SPA) for TANK-2 inhibitory activity. In kind it is biochemical. As to conditions: read-out: in vitro SPA assay TANK-2 pIC50 (converted). The procedure, abridged: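 Results are pIC50 values, with IC50 interpolated linearly around 50% of blank-subtracted control cpm. They come from a scintillation proximity read of TANK-2 (8 μg/ml) self-modification with [3H]-NAD+/NAD, incubated 120 min at room temperature in pH 7.4 Tris buffer containing MgCl2 and DTT. Compounds were first screened at 10^−5 M.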
For orientation: SPA uses beads or plates that emit light when radiolabelled molecules are held near them.
Take `Cc1cc2ccc(C(C)(C#N)C3CCc4c(C#N)cccc43)cc2[nH]c1=O` (racemic) [Compound 393]: the IC50 is 794 nM.

Turning to `CCc1cc2ccc([C@@](C)(C#N)CN(C)Cc3ccc(C#N)cc3)cc2[nH]c1=O` (single isomer, unassigned) [Compound 253], the IC50 was 200 nM. The same measure for `CCc1cc2ccc(C(C)(C#N)C3CCc4ccc(Br)cc43)cc2[nH]c1=O` (single isomer, unassigned) [Compound 380]: 2510 nM; for `CCc1cc2ccc(C(C)(C#N)C3CCc4ccc(Br)cc43)cc2[nH]c1=O` (single isomer, unassigned) [Compound 381]: 1260 nM. As to `Cc1cc2ccc([C@](C)(C#N)C3CCc4cccnc43)cc2[nH]c1=O` (single isomer, unassigned) [Compound 388], the IC50 is 631 nM. Then `CCc1cc2ccc([C@](C)(C#N)[C@H]3CCOc4ccccc43)cc2[nH]c1=O` (single isomer, unassigned) [Compound 394], with 1000 nM. For the molecule `CCc1cc2ccc([C@@](C)(C#N)[C@H]3CCOc4ccccc43)cc2[nH]c1=O` (single isomer, unassigned) [Compound 395], the IC50 is 501 nM. With `CCc1cc2ccc([C@](C)(C#N)C[C@H]3CCc4ccccc4O3)cc2[nH]c1=O` (single isomer, unassigned) [Compound 396], the IC50 is 158 nM. Then `CCc1cc2ccc(C(C)(C#N)Cc3cccc(-c4cnn(C)c4)c3)cc2[nH]c1=O` (stereo not shown) [Compound 17], with 50.1 nM; and `CCc1cc2ccc(C(C)(C#N)Cc3cccc(-c4ccccc4)c3)cc2[nH]c1=O` (stereo not shown) [Compound 18], with 251 nM; and `CCc1cc2ccc(C(C)(C#N)Cc3cccc(I)c3)cc2[nH]c1=O` (stereo not shown) [Compound 19], with 158 nM.

`CCc1cc2ccc(C(C)(C#N)Cc3cccc(N(C)C)c3)cc2[nH]c1=O` (stereo not shown) [Compound 20]: the IC50 was 63.1 nM. Turning to `CCc1cc2ccc(C(C)(C#N)Cc3cccc(N4CCOCC4)c3)cc2[nH]c1=O` (stereo not shown) [Compound 21], the IC50 is 63.1 nM. Then `CCc1cc2ccc(C(C)(C#N)Cc3cccc(O)c3)cc2[nH]c1=O` (stereo not shown) [Compound 22], with 50.1 nM.

With `CCc1cc2ccc(C(C)(C#N)Cc3cccc(OCc4ccccc4)c3)cc2[nH]c1=O` (stereo not shown) [Compound 23], the IC50 was 200 nM.

Turning to `CCc1cc2ccc(C(C)(C#N)Cc3cccc(OCCOC)c3)cc2[nH]c1=O` (stereo not shown) [Compound 24], the IC50 is 79.4 nM. Turning to `CCC(=O)c1cccc(CC(C)(C#N)c2ccc3cc(C)c(=O)[nH]c3c2)c1` (stereo not shown) [Compound 173], the IC50 was 1260 nM. Take `CCc1cc2ccc(C(C)(C#N)Cc3cc(C)cc(C#N)c3)cc2[nH]c1=O` (stereo not shown) [Compound 174]: the IC50 is 200 nM. Consider `CCc1cc2ccc(C(C)(C#N)Cc3cccc(S(F)(F)(F)(F)F)c3)cc2[nH]c1=O` (stereo not shown) [Compound 177], for which the IC50 is 398 nM. Turning to `CCc1cc2ccc(C(C)(C#N)Cc3cccc(C4(N)CC4)c3)cc2[nH]c1=O` (stereo not shown) [Compound 180], the IC50 was 158 nM. The same measure for `CCc1cc2ccc(C(C)(C#N)CCCN(C)C(=O)c3ccc(F)cc3)cc2[nH]c1=O` (stereo not shown) [Compound 188]: 20 nM; for `CCc1cc2ccc([C@](C)(C#N)CN(C)Cc3ccc(C#N)cc3)cc2[nH]c1=O` [Compound 190]: 251 nM.

With `Cc1cc2ccc(C(C)(C#N)Cc3cccc(Oc4ncccn4)c3)cc2[nH]c1=O` (stereo not shown) [Compound 191], the IC50 was 1580 nM.

With `Cc1cc2ccc(C(C)(C#N)Cc3cccc(Oc4ccccc4)n3)cc2[nH]c1=O` (stereo not shown) [Compound 193], the IC50 was 631 nM.

For `CCc1cc2cc(C)c(C(C)(C#N)Cc3cccc(C#N)n3)cc2[nH]c1=O` (stereo not shown) [Compound 208], the IC50 is 39.8 nM. `CCc1cc2ccc(C(C)(C#N)Cc3ccc(Cl)nc3Cl)cc2[nH]c1=O` (stereo not shown) [Compound 212]: the IC50 was 126 nM. Then `COc1cc2ccc(C(C)(C#N)Cc3cccc(C#N)n3)cc2[nH]c1=O` (stereo not shown) [Compound 218], with 1000 nM. As to `CCc1cnc(OCCC(C)(C#N)c2ccc3cc(CC)c(=O)[nH]c3c2)nc1` (stereo not shown) [Compound 222], the IC50 was 100 nM.

Turning to `CCc1cc2ccc(C(C)(C#N)CCOc3nccc(OC)n3)cc2[nH]c1=O` (stereo not shown) [Compound 223], the IC50 was 794 nM. On to `CCc1cc2ccc(C(C)(C#N)Cc3ccc(OC)nc3Cl)cc2[nH]c1=O` (stereo not shown) [Compound 224], for which the IC50 was 200 nM. Consider `CCc1cc2ccc(C(C)(C#N)Cc3ccc(Cl)nc3OC)cc2[nH]c1=O` (stereo not shown) [Compound 225], for which the IC50 was 126 nM. For `CCc1cc2ccc(C(C)(C#N)Cc3cccc(N4CCCC4)n3)cc2[nH]c1=O` (stereo not shown) [Compound 226], the IC50 was 200 nM. As for `Cc1cc2ccc(C(C)(C#N)Cc3cccc(C#N)n3)cc2[nH]c1=O` (stereo not shown) [Compound 227], the IC50 was 316 nM. Turning to `CCc1cc2ccc(C(C)(C#N)Cc3cc(OC)cc(OC)n3)cc2[nH]c1=O` (stereo not shown) [Compound 232], the IC50 is 63.1 nM. Turning to `CCc1cc2ccc(C(C)(C#N)Cc3cc(C#N)cc4c3OCC4)cc2[nH]c1=O` (stereo not shown) [Compound 236], the IC50 was 31.6 nM.

Take `CCc1cc2ccc(C(C)(C#N)Cc3cc4ccccc4nn3)cc2[nH]c1=O` (stereo not shown) [Compound 238]: the IC50 is 251 nM.

For the molecule `Cc1cc2ccc([C@@](C)(C#N)[C@@H]3CCc4cc(Br)ccc43)cc2[nH]c1=O` [Compound 240], the IC50 is 6310 nM. In the case of `Cc1cc2ccc([C@@](C)(C#N)[C@H]3CCc4cc(Br)ccc43)cc2[nH]c1=O` [Compound 241], the IC50 is 6310 nM. Consider `Cc1cc2ccc([C@](C)(C#N)[C@@H]3CCc4cc(Br)ccc43)cc2[nH]c1=O` [Compound 242], for which the IC50 was 7940 nM. The same measure for `Cc1cc2ccc(C(C)(C#N)C3CCc4cc(Br)ccc43)cc2[nH]c1=O` (stereo not shown) [Compound 244]: 7940 nM; for `Cc1cc2ccc(C(C)(C#N)C3CCc4c(Br)cccc43)cc2[nH]c1=O` (stereo not shown) [Compound 248]: 1260 nM. Turning to `Cc1cc2ccc(C(C)(C#N)C3CCc4ccc(Br)cc43)cc2[nH]c1=O` (stereo not shown) [Compound 249], the IC50 is 2510 nM.

Consider `Cc1cc2ccc(C(C)(C#N)C3CCc4ccc(C#N)cc43)cc2[nH]c1=O` (stereo not shown) [Compound 250], for which the IC50 is 398 nM.

Turning to `C=C(C)c1cccc(CC(C)(C#N)c2ccc3cc(CC)c(=O)[nH]c3c2)c1` (stereo not shown) [Compound 254], the IC50 was 251 nM. For `CCc1cc2ccc(C(C#N)(CC)Cc3cccc(C#N)c3)cc2[nH]c1=O` (stereo not shown) [Compound 265], the IC50 was 100 nM. The same measure for `CCc1cc2ccc(C(C)(C#N)Cc3cc(F)cc(C#N)c3)cc2[nH]c1=O` (stereo not shown) [Compound 266]: 25.1 nM; for `CCc1cc2ccc(C(C#N)(CC)Cc3cccc(F)c3)cc2[nH]c1=O` (stereo not shown) [Compound 270]: 316 nM.

`Cc1cc2ccc(C(C)(C#N)CCCCOc3ccccc3)cc2[nH]c1=O` (stereo not shown) [Compound 272]: the IC50 was 501 nM. As to `Cc1cc2ccc(C(C)(C#N)Cc3cc(F)cc(F)c3)cc2[nH]c1=O` (stereo not shown) [Compound 282], the IC50 is 794 nM. For the molecule `CCc1cc2ccc(C(C)(C#N)Cc3cc(C)cc(Br)c3)cc2[nH]c1=O` (stereo not shown) [Compound 284], the IC50 was 501 nM. Turning to `CCc1cc2ccc(C(C#N)(CC)Cc3cccc(OC)c3)cc2[nH]c1=O` (stereo not shown) [Compound 287], the IC50 was 1000 nM. `CCc1cc2ccc(C(C)(C#N)CN(C)CCc3cn(C)c4ccccc34)cc2[nH]c1=O` (stereo not shown) [Compound 303]: the IC50 is 126 nM.
